Assay results taken from US12049474B2, “Nucleoside prodrugs and uses related thereto” (Emory University, priority 2019, dated 2024).
Counter-ions that a name gives are not always drawn. Like-named read-outs stand apart in the source and are kept apart here.

What was measured:
HEK293 cells = conditions: 50% cytotoxic concentration; italicized results: absence of human serum albumin
CYP2D6 = CYP2D6 (Homo sapiens (Human), UniProt P10635); experiment: biochemical; assay type: biochemical; conditions: human recombinant CYP2D6, AMMC substrate; read-out: CYP450 IC50 2D6
Description: (§1) The CYP450 inhibition assays utilized microsomes from insect cells expressing human recombinant individual cDNA-expressed CYP isoforms 3A4 and 2D6, as well as the fluorogenic probe that produces fluorescent metabolite. Standard inhibitors were co-incubated with fluorogenic substrates and their inhibitory potential (IC50) was determined. Assay conditions in terms of CYP450 protein concentration and time of incubation were standardized, enzyme kinetics parameters of each fluorescent probe substrate were estimated and IC50 values of inhibitors were determined and validated on different days to check reproducibility.
(§2) A 100 mM sodium phosphate buffer was prepared and adjusted to pH 7.4. In a separate falcon tube, a 2× enzyme/substrate (E/S) solution was prepared in phosphate buffer. The final concentration of CYP2D6 (CORNING®) and […] (AMMC) was 10 nM and 4 μM, and CYP3A4 (CORNING®) and 7-benzyloxy-4-(trifluoromethyl) coumarin (BFC) was 20 nM and 40 μM, respectively. In a separate falcon tube, a 2×NADPH regenerating system (NRS) was prepared in phosphate buffer. The final concentration for each component in the assay was as follows: • CYP2D6 assay: 0.008 mM NADPH, 3.3 mM glucose 6-phosphate, 0.4 U of glucose-6-phosphate dehydrogenase per mL
(§3) Both enzymatic assays were conducted in a 96-well microtiter plate (Black, CORNING® COSTAR®) with a final volume of 100 μL. Preparation of the plate began with the addition of 74 μL of the E/S in the first well, and 50 μL to all subsequent wells (from 2-11). The test compounds (1 μL) were dissolved in the first well to give the first row a final volume of 75 μL. A 1:3 serial dilution of the test compound was conducted by removing 25 μL from the first well and diluting it with the second and so forth until the tenth row. Final concentrations yielded a range from 200 μM-0.01 μM. Well no. 11 contained no inhibitor, and well no. 12 contained no enzyme. Both were used as controls for background fluorescence. The plate was incubated for 30 min at 37° C. After incubation, the reaction was initiated by the addition of 50 μL of the 2×NRS to each well.
Immediately (within 1 min) the fluorescence was measured using a microplate reader (BIOTEK® Synergy Neo2). CYP2D6 was monitored at Ex/Em=410/460 nm, and CYP3A4 monitored at Ex/Em=410/538 nm in kinetic mode that scanned every 5 min for 60 mins. Data was exported and analyzed using Graph Pad Prism 7. […] The IC50 value was derived after the data was fitted on a 10-point curve using a four-parameter logistic regression model.

[1] = Metabolic stability assay in human liver microsomes (HLM); assay type: in vitro ADME; conditions: NADPH, sampled 0-120 min; for HLM t1/2: 3 μM test compound
Description: The LC-MS/MS analysis was performed using Agilent 1260 Infinity II HPLC, coupled with an Agilent G6460 triple quadrupole mass spectrometer (Agilent Technologies, USA). All the data were acquired employing Agilent 6460 Quantitative Analysis data processing software.
Reverse-phase HPLC separation for each compound was achieved either on an Agilent Porshell 120 EC-C8 column (2.1×50 mm, 2.7 μm), or on an Agilent Zorbax XDB C18 column (2.1×50 mm, 3.5 μm) with a mobile phase composed of methanol-water-formic acid or acetonitrile-water-formic acid (0.1%) at a flow rate of 0.5 mL/min (changes for some compounds). Each method was developed in the presence of an internal standard (ISTD) d5-7-ethoxy coumarin. The column temperature was maintained at 40° C. for most of the samples otherwise noted. The detection was operated in the Agilent JetStream electrospray positive ionization using multiple reaction monitoring mode (MRM).
Other MS conditions were as follows: dwell time 100 ms; gas flow 10 L/min; nebulizer pressure 45 psi; delta EMV 200 V; fragmentor voltage and collision energy for individual compounds vary.
Test compounds were dissolved in 100% DMSO or 100% MeOH to make 10 mM stock solutions. Verapamil (Sigma Aldrich) aided as a positive control and was dissolved in 100% DMSO to make 10 mM stock solutions. The 10 mM stock solution of test and control compounds were further diluted in potassium phosphate buffer (100 mM, pH 7.4) to 500 μM to ensure the organic solvent content was <0.2%. Human liver microsomes (HLMs) were purchased from Xenotech at 20 mg/mL. NADPH (Sigma Aldrich) 10 mM stocks were prepared in deionized water.
The HLM assay was prepared in a 1.5 mL Eppendorf tube with a final volume of 1100 μL for duplicate runs. Each reaction contained phosphate buffer (928.4 μL), liver microsomes (55 μL), and test compound resulting in a final concentration of 3 μM (6.6 μL of 500 μM). The reaction was initiated with 110 μL of 10 mM NADPH. Aliquots (100 μL) were removed in duplicate at 0, 15, 30, 60, 120 min (for prodrug compounds) and 0, 5, 10, 15, 30 min (verapamil, positive control compound) time intervals and quenched in cold […] of 100% methanol which contained internal standard (ISTD: d5-7-ethoxy coumarin 4 μM). Before centrifugation each of the aliquoted tubes were vortexed to make sure compounds were in the solution. The aliquots were centrifuged at 12,000 g for 5 min and the supernatant removed and placed in an LC-MS vial. Each time point was assessed using LC-MS and the area, based on the extracted ion, was integrated with respect to the ISTD. Positive controls were conducted at a final volume of 550 μL to give each time point in a single run. A no-NADPH negative control with test or control compound was performed in a single run (150 μL) at the longest time point. Controls were processed and analyzed like the test compounds. Each time point was run in duplicates followed by in-between blank washes to avoid the carryover and to equilibrate the column.

CYP3A4 = CYP3A4 (Homo sapiens (Human), UniProt P08684); experiment: Fluorometric CYP450 enzyme inhibition assay, CYP3A4; assay type: biochemical; conditions: human recombinant CYP3A4, BFC substrate; read-out: CYP450 IC50 3A4
Description: as §1, §2
as §3, with “The test compounds (1 μL) were dissolved in the first well to give the first row a final volume of 75 μL.” left out
Immediately (within 1 min) the fluorescence was measured using a microplate reader (BIOTEK® Synergy Neo2). […] Data was exported and analyzed using Graph Pad Prism 7. […] The IC50 value was derived after the data was fitted on a 10-point curve using a four-parameter logistic regression model.

[2] = dogs, cited from earlier work
HIV = experiment: microbe, parasite or virus in culture; assay type: cell-based; conditions: italicized results: absence of human serum albumin

Sequence of CYP2D6 (P10635 whole entry, canonical isoform): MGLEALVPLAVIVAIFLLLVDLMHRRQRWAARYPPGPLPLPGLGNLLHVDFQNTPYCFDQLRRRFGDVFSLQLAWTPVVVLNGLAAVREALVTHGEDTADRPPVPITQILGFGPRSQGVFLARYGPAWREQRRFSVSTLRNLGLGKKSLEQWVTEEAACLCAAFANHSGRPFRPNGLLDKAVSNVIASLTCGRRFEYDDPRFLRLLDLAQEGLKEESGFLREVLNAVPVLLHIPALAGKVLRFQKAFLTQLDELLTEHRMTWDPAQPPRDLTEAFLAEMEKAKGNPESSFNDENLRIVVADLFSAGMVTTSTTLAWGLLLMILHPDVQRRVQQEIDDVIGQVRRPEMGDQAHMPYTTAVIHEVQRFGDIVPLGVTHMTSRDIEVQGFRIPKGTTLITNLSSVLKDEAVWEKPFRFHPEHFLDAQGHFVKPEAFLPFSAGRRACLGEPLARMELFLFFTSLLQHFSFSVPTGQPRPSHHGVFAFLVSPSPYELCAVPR
Sequence of CYP3A4 (P08684 whole entry): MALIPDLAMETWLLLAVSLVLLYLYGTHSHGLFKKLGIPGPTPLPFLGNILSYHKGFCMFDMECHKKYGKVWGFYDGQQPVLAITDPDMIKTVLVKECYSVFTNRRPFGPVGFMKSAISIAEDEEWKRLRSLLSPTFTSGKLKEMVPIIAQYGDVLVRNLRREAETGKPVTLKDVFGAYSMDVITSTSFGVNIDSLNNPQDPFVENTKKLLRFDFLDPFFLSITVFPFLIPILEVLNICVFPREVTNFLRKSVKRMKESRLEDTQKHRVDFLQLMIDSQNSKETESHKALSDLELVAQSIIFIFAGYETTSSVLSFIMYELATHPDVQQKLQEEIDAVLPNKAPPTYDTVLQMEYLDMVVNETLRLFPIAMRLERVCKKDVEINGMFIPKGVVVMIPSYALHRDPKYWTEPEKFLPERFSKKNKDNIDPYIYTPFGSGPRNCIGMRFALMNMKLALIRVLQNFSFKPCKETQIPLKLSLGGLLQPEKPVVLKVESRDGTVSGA

Row | Compound | CC50 (HEK293 cells) [µM] | IC50 (CYP2D6) [µM] | melting point | HLM t1/2 [1] [min] | IC50 (CYP3A4) [µM] | fraction of dose converted to plasma TFV ([2]; single oral dose) [%] | fraction of dose sequestered for toxic side effects ([2]; single oral dose) [%] | fraction of dose that achieved access to plasma unscathed ([2]; single oral dose) [%] | fraction of a single oral dose extracted by the liver [2] [%] | IC50 (HIV; Human immunodeficiency virus 1, HEK293, read-out: HIV IC50, pseudoviral particles, HEK293 cells) [µM] | IC50 (HIV; read-out: HIV IC50, pseudoviral particles, HEK293 cells) [µM] | half-life at 3 µM ([1]; pH 7.4, 3 μM test compound, read-out: HLM t1/2) [min]
1 | CCCCCCCCCCCCCCCCCCOP(=O)(O)CO[C@H](C)Cn1cnc2c(N)ncnc21.N [MD-1-105, Ammonium Octadecyl (R)-(((1-(6-amino-9H-purin-9-yl)propan-2-yl)oxy)methyl)phosphonate] | 84.1 | 20 | 154 to 184 °C (dec.) | 13 | 52.9 | – | – | – | – | – | – | –
2 | CCCCCCCCCCCCCCCOP(=O)(O)CO[C@H](C)Cn1cnc2c(N)ncnc21.N [MD-1-106, Ammonium Pentadecyl (R)-(((1-(6-amino-9H-purin-9-yl)propan-2-yl)oxy)methyl)phosphonate] | > 100 | 22 | 162 to 190 °C (dec.) | 13 | 54.9 | – | – | – | – | – | – | –
3 | CC(C)OC(=O)[C@H](C)N[P@](=O)(CO[C@H](C)Cn1cnc2c(N)ncnc21)Oc1ccccc1 [TAF, tenofovir alafenamide fumarate] | – | > 50 | – | – | 21 | 17 | 82 | 18 | 65 | 0.002 | 0.001 | 26
